Here are results for 1 compound from PMC9814642 (2021).

In assay [1] the test system is HT10 (DNA, G4) AGGGTTAGGTTTAGGGTTAGGG
The assay is described as follows: time-resolved luminescence at 620 nm. Particulars: 100 mM NaCl; 10 mM Tris-HCl pH 7.5; lifetimes 430.7 and 61.4 ns.

Assay [2] has as its system HT G-quadruplex (DNA, G4) AGGGTTAGGGTTAGGGTTAGGG
Nature of the assay: CD melting at 295 nm. Particulars: 100 mM NaCl; 10 mM Tris-HCl pH 7.5; derived from two Tm (56.6, 61.0); highest compound concentration, ratio only in Figure 2D.

Assay [3] has as its system ds-DNA (HT with complementary sequence) (DNA, duplex) AGGGTTAGGGTTAGGGTTAGGG/CCCTAACCCTAACCCTAACCCT
Nature of the assay: time-resolved luminescence at 620 nm. Particulars: 100 mM NaCl; 10 mM Tris-HCl pH 7.5; lifetimes 492 and 88.1 ns.

The subject of assay [4] is Oxyticha nova G-quadruplex (DNA, G4) GGGGTTTTGGGG
Nature of the assay: CD melting. Particulars: 100 mM NaCl; 10 mM Tris-HCl pH 7.5; no change of Tm 59.2 °C; binds by end-stacking.

Assay [5] has as its system HT G-quadruplex (DNA, G4) AGGGTTAGGGTTAGGGTTAGGG
Nature of the assay: UV-vis absorption titration. Particulars: 100 mM NaCl; 10 mM Tris-HCl pH 7.5, 25 °C; fit with [DNA] in base pairs, binding size s = 2.3; per base.

The subject of assay [6] is HT8 (DNA, G4) AGGGTTATGGTTAGGGTTAGGG
The assay is described as follows: time-resolved luminescence at 620 nm. Particulars: 100 mM NaCl; 10 mM Tris-HCl pH 7.5; lifetimes 1046 and 151.2 ns.

Assay [7] has as its system Oxyticha nova G-quadruplex (DNA, G4) GGGGTTTTGGGG
The assay is described as follows: UV-vis absorption titration. Particulars: 100 mM NaCl; 10 mM Tris-HCl pH 7.5, 25 °C; fit with [DNA] in base pairs, binding size s = 1; per base.

One may read the ΔTm as the change in melting temperature against a reference sample. Turning to `[Ru+2].c1ccc2nc3c4cccnc4c4ncccc4c3nc2c1.c1cnc2c(c1)ccc1cccnc12.c1cnc2c(c1)ccc1cccnc12`, the binding result in assay [1], in assay [3] and in assay [6] was “yes” throughout. Also, the ΔTm in assay [2] stood at 4.4 °C; in assay [4], 0 °C. The K in assay [5] worked out at 5.1e+06 M⁻¹; in assay [7], 990000 M⁻¹.
